Assays:
Acetylcholinesterase = Acetylcholinesterase (Homo sapiens, UniProt P22303); experiment: Inhibition of AChE
Histamine H3 receptor = Histamine H3 receptor (Homo sapiens, UniProt Q9Y5N1); experiment: Inhibition of histamine H3 receptor
Histamine H3 receptor, sequence (Q9Y5N1 whole entry): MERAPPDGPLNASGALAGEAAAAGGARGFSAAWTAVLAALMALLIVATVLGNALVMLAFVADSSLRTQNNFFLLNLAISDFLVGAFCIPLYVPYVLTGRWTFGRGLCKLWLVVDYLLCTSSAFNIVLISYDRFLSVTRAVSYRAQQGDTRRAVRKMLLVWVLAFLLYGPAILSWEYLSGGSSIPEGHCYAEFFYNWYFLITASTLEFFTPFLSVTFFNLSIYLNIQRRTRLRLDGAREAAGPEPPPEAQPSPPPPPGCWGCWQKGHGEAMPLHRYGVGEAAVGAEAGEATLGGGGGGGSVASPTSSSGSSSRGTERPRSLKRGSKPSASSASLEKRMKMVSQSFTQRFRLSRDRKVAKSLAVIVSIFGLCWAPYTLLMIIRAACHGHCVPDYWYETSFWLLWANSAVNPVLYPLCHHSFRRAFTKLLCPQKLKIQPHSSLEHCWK

Acetylcholinesterase, sequence (P22303 whole entry): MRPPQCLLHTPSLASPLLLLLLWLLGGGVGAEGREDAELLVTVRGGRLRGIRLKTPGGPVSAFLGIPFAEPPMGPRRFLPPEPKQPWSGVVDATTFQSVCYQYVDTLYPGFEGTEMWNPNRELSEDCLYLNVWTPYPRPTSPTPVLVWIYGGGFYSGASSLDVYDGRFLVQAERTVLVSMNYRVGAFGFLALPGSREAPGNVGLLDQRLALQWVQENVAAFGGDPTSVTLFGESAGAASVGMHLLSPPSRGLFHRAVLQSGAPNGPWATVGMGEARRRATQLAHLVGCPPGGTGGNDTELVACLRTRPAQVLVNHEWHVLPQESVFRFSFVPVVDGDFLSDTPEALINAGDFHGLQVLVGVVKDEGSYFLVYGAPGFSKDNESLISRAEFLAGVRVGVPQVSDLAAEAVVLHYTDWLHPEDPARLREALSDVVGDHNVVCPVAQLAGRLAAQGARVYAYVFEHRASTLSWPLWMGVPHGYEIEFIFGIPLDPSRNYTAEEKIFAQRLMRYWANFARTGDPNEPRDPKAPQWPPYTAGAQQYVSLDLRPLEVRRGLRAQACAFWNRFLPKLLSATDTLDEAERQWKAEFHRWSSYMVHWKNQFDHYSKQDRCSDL

C[N+](C)(C)CCCCCCCCCC[N+](C)(C)C [DECAMETHONIUM]
IC50 (Acetylcholinesterase): 5900 nM
IC50 (Histamine H3 receptor): 820 nM

OCCC1CCN(Cc2ccc(OCCCN3CCCCC3)cc2)CC1
IC50 (Acetylcholinesterase): 350 nM
IC50 (Histamine H3 receptor): 0.98 nM

COc1cc2c(cc1OC)C(=O)C(CC1CCN(Cc3ccccc3)CC1)C2 (stereo not given) [DONEPEZIL]
IC50 (Histamine H3 receptor): 350 nM

OC1CCN(Cc2ccc(OCCCN3CCCCC3)cc2)CC1
IC50 (Acetylcholinesterase): 2300 nM
IC50 (Histamine H3 receptor): 0.72 nM

c1cc(OCCCN2CCCCC2)ccc1CN1CCCCC1 [JNJ-5207852]
IC50 (Acetylcholinesterase): 3200 nM

OCC1CCN(Cc2ccc(OCCCN3CCCCC3)cc2)CC1
IC50 (Acetylcholinesterase): 1100 nM
IC50 (Histamine H3 receptor): 1.3 nM

Source: ChEMBL document CHEMBL1143968, “Lead identification of acetylcholinesterase inhibitors-histamine H3 receptor antagonists from molecular modeling” (Bioorg Med Chem, 2008)
